According to patent publication US9650395B2, “Antibacterial compounds and methods for use” (PTC Therapeutics, Inc., priority 2011, dated 2017):
Converted amounts (≈) assume the structure as drawn. Where a name gives a salt, the structure may show the parent alone. Read-outs that look alike come from different tables or passages of the source.

Key:
[1] = system: Klebsiella pneumoniae (K. pneumoniae) 35657; assay: Antibacterial activity, MIC, K. pneumoniae 35657; format: cell-based; details: Klebsiella pneumoniae
[2] = system: E. coli ELZ4251 (MDR clinical isolate); assay: Antibacterial activity, MIC, MDR E. coli ELZ4251; format: cell-based, Escherichia coli; details: Escherichia coli, read-out: MIC ELZ4251
[3] = system: Pseudomonas aeruginosa (P. aeruginosa) 27853; assay: Antibacterial activity, MIC, P. aeruginosa 27853; format: cell-based; details: Pseudomonas aeruginosa, read-out: MIC 27853
Excerpt: (§1) The antibacterial activity from a microbroth dilution method may be presented as the minimum inhibitory concentration (MIC in […]). The MIC value is the lowest concentration of a drug which prevents macroscopically visible bacterial growth under test conditions.
Antibacterial activity of test compounds against the Gram-negative bacterium Pseudomonas aeruginosa (P. aeruginosa) 27853 is shown in Table 5.

[4] = system: E. coli ELZ4000 (MDR clinical isolate); assay: Antibacterial activity, MIC, MDR E. coli ELZ4000; format: cell-based, Escherichia coli; details: Escherichia coli, read-out: MIC ELZ4000
[5] = system: super sensitive Gram-negative Escherichia coli (E. coli) BAS849; assay: Antibacterial activity, microbroth dilution MIC, E. coli BAS849; format: cell-based; details: Escherichia coli, read-out: MIC, BAS849
[6] = system: quinolone resistant E. coli LZ3111; assay: Antibacterial activity, MIC, quinolone resistant E. coli LZ3111; format: cell-based, Escherichia coli; details: Escherichia coli, read-out: MIC, LZ3111
Excerpt: as §1
Mutations in these regions are known to confer a high level resistance to the quinolone class of antibiotics.

[7] = system: control Gram-negative E. coli 25922 strain; assay: Antibacterial activity, microbroth dilution MIC, E. coli 25922; format: cell-based, Escherichia coli; details: Escherichia coli; E. coli 25922, microbroth dilution; read-out: MIC, 25922
[8] = system: Gram-positive Staphylococcus aureus (S. aureus) 29213; assay: Antibacterial activity, microbroth dilution MIC, S. aureus 29213; format: cell-based; details: Staphylococcus aureus; S. aureus 29213, microbroth dilution; read-out: MIC, 29213
[9] = system: Acinetobacter baumannii (A. baumannii) BAA747; assay: Antibacterial activity, MIC, A. baumannii BAA747; format: cell-based; details: Acinetobacter baumannii
[10] = system: Moraxella catarrhalis (M. catarrhalis) 25238; assay: Antibacterial activity, MIC, M. catarrhalis 25238; format: cell-based; details: Moraxella catarrhalis, read-out: MIC 25238
[11] = system: Haemophilus influenzae (H. influenzae) 49247; assay: Antibacterial activity, MIC, H. influenzae 49247; format: cell-based; details: Haemophilus influenzae, read-out: MIC 49247
In short: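 A microbroth dilution method gave the minimum inhibitory concentration for each compound against H. influenzae 49247, a Gram-negative bacterium. MIC means the smallest concentration of drug at which no macroscopically visible bacterial growth appears under the conditions of the test.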

[12] = system: Neisseria meningitidis (N. meningitidis) 13090; assay: Antibacterial activity, MIC, N. meningitidis 13090; format: cell-based; details: Neisseria meningitidis, read-out: MIC 13090
[13] = E. coli ELZ4251, MDR clinical isolate
[14] = E. coli ELZ4000, MDR clinical isolate
[15] = E. coli BAS849, microbroth dilution
[16] = A. baumannii BAA747, read-out: MIC BAA747

| SMILES | MIC [1] [µg/mL] | MIC [2, 13] [µg/mL] | MIC ([3]; P. aeruginosa 27853) [µg/mL] | MIC [4, 14] [µg/mL] | MIC [5, 15] [µg/mL] | MIC [6] [µg/mL] | MIC [7] [µg/mL] | MIC [8] [µg/mL] | MIC [9, 16] [µg/mL] | MIC ([10]; M. catarrhalis 25238) [µg/mL] | MIC ([11]; H. influenzae 49247) [µg/mL] | MIC ([12]; N. meningitidis 13090) [µg/mL] | MIC ([9]; BAA747, read-out: MIC BAA747) [µg/mL] | MIC [2] [µg/mL] | MIC [11] [µg/mL] | MIC [3] [µg/mL] | MIC [4] [µg/mL] | MIC [12] [µg/mL] | MIC [5] [µg/mL] | MIC [10] [µg/mL] |
| --- | --- | --- | --- | --- | --- | --- | --- | --- | --- | --- | --- | --- | --- | --- | --- | --- | --- | --- | --- | --- |
| Cc1cc(C(=O)O)c(=O)[nH]c1-c1ccc(N(C)C)cc1 [Cpd 4, 6-[4-(dimethylamino)phenyl]-5-methyl-2-oxo-1,2-dihydropyridine-3-carboxylic acid] | 3.5 to 12.5 (≈ 12.9 to 45.9 µM) | 12.5 to 150 (≈ 45.9 to 551 µM) | 12.5 to 150 (≈ 45.9 to 551 µM) | 12.5 to 150 (≈ 45.9 to 551 µM) | < 1 | 12.5 to 150 (≈ 45.9 to 551 µM) | 12.5 to 150 (≈ 45.9 to 551 µM) | 12.5 to 150 (≈ 45.9 to 551 µM) | – | – | – | – | – | – | – | – | – | – | – | – |
| CCc1cc(C(=O)O)c(=O)[nH]c1-c1ccccc1 [Cpd 75, 5-ethyl-2-oxo-6-phenyl-1,2-dihydropyridine-3-carboxylic acid] | – | 12.5 to 150 (≈ 51.4 to 617 µM) | 12.5 to 150 (≈ 51.4 to 617 µM) | 12.5 to 150 (≈ 51.4 to 617 µM) | 1 to 3.5 (≈ 4.11 to 14.4 µM) | 12.5 to 150 (≈ 51.4 to 617 µM) | 12.5 to 150 (≈ 51.4 to 617 µM) | 12.5 to 150 (≈ 51.4 to 617 µM) | 12.5 to 150 (≈ 51.4 to 617 µM) | 12.5 to 150 (≈ 51.4 to 617 µM) | – | – | – | – | – | – | – | – | – | – |
| CCc1cc(C(=O)O)c(=O)[nH]c1-c1ccc(N2CCOCC2)c(F)c1 [Cpd 84, 5-ethyl-6-[3-fluoro-4-(morpholin-4-yl)phenyl]-2-oxo-1,2-dihydropyridine-3-carboxylic acid] | – | 12.5 to 150 (≈ 36.1 to 433 µM) | 12.5 to 150 (≈ 36.1 to 433 µM) | 12.5 to 150 (≈ 36.1 to 433 µM) | 3.5 to 12.5 (≈ 10.1 to 36.1 µM) | 12.5 to 150 (≈ 36.1 to 433 µM) | 12.5 to 150 (≈ 36.1 to 433 µM) | 12.5 to 150 (≈ 36.1 to 433 µM) | 12.5 to 150 (≈ 36.1 to 433 µM) | 3.5 to 12.5 (≈ 10.1 to 36.1 µM) | < 1 | 1 to 3.5 (≈ 2.89 to 10.1 µM) | – | – | – | – | – | – | – | – |
| CCc1cc(C(=O)O)c(=O)[nH]c1-c1ccc(N2CCNCC2)c(F)c1.O=C(O)C(F)(F)F [Cpd 92, 5-ethyl-6-[3-fluoro-4-(piperazin-1-yl)phenyl]-2-oxo-1,2-dihydropyridine-3-carboxylic acid trifluoroacetate] | – | – | – | – | – | 12.5 to 150 | 12.5 to 150 | 12.5 to 150 | – | – | – | – | 12.5 to 150 | 12.5 to 150 | 1 to 3.5 | 12.5 to 150 | 12.5 to 150 | 3.5 to 12.5 | 12.5 to 150 | 12.5 to 150 |
| CC(C)c1cc(C(=O)O)c(=O)[nH]c1-c1ccc(N(C)C)cc1 [Cpd 95, 6-[4-(dimethylamino)phenyl]-2-oxo-5-(propan-2-yl)-1,2-dihydropyridine-3-carboxylic acid] | 12.5 to 150 (≈ 41.6 to 499 µM) | 12.5 to 150 (≈ 41.6 to 499 µM) | 12.5 to 150 (≈ 41.6 to 499 µM) | 12.5 to 150 (≈ 41.6 to 499 µM) | < 1 | 12.5 to 150 (≈ 41.6 to 499 µM) | 3.5 to 12.5 (≈ 11.7 to 41.6 µM) | 12.5 to 150 (≈ 41.6 to 499 µM) | – | < 1 | < 1 | < 1 | – | – | – | – | – | – | – | – |
| CCc1cc(C(=O)O)c(=O)[nH]c1-c1ccc(N(CC)CC)cc1 [Cpd 97, 6-[4-(diethylamino)phenyl]-5-ethyl-2-oxo-1,2-dihydropyridine-3-carboxylic acid] | 3.5 to 12.5 (≈ 11.1 to 39.8 µM) | 12.5 to 150 (≈ 39.8 to 477 µM) | 12.5 to 150 (≈ 39.8 to 477 µM) | 12.5 to 150 (≈ 39.8 to 477 µM) | < 1 | 12.5 to 150 (≈ 39.8 to 477 µM) | 3.5 to 12.5 (≈ 11.1 to 39.8 µM) | 12.5 to 150 (≈ 39.8 to 477 µM) | – | < 1 | < 1 | < 1 | – | – | – | – | – | – | – | – |
| CCc1cc(C(=O)O)c(=O)[nH]c1-c1ccc(N2CCCC2)cc1 [Cpd 99, 5-ethyl-2-oxo-6-[4-(pyrrolidin-1-yl)phenyl]-1,2-dihydropyridine-3-carboxylic acid] | 3.5 to 12.5 (≈ 11.2 to 40 µM) | 12.5 to 150 (≈ 40 to 480 µM) | 3.5 to 12.5 (≈ 11.2 to 40 µM) | 12.5 to 150 (≈ 40 to 480 µM) | < 1 | 12.5 to 150 (≈ 40 to 480 µM) | < 1 | 1 to 3.5 (≈ 3.2 to 11.2 µM) | – | < 1 | < 1 | < 1 | – | – | – | – | – | – | – | – |
| CCc1c(-c2ccc(N3CCCC3)cc2)[nH]c(=O)c(C(=O)O)c1O [Cpd 100, 5-ethyl-4-hydroxy-2-oxo-6-[4-(pyrrolidin-1-yl)phenyl]-1,2-dihydropyridine-3-carboxylic acid] | 12.5 to 150 (≈ 38.1 to 457 µM) | 12.5 to 150 (≈ 38.1 to 457 µM) | 12.5 to 150 (≈ 38.1 to 457 µM) | 12.5 to 150 (≈ 38.1 to 457 µM) | < 1 | 12.5 to 150 (≈ 38.1 to 457 µM) | 3.5 to 12.5 (≈ 10.7 to 38.1 µM) | 1 to 3.5 (≈ 3.05 to 10.7 µM) | – | < 1 | < 1 | < 1 | – | – | – | – | – | – | – | – |
| CCc1cc(C(=O)O)c(=O)[nH]c1-c1ccc(-n2cccc2)cc1 [Cpd 101, 5-ethyl-2-oxo-6-[4-(1H-pyrrol-1-yl)phenyl]-1,2-dihydropyridine-3-carboxylic acid] | 3.5 to 12.5 (≈ 11.4 to 40.5 µM) | 12.5 to 150 (≈ 40.5 to 486 µM) | 12.5 to 150 (≈ 40.5 to 486 µM) | 12.5 to 150 (≈ 40.5 to 486 µM) | < 1 | 12.5 to 150 (≈ 40.5 to 486 µM) | 12.5 to 150 (≈ 40.5 to 486 µM) | 12.5 to 150 (≈ 40.5 to 486 µM) | – | < 1 | < 1 | < 1 | – | – | – | – | – | – | – | – |
| CCc1cc(C(=O)O)c(=O)[nH]c1-c1ccc(N2Cc3cccnc3C2)cc1 [Cpd 192, 6-[4-(5,7-dihydro-6H-pyrrolo[3,4-b]pyridin-6-yl)phenyl]-5-ethyl-2-oxo-1,2-dihydropyridine-3-carboxylic acid] | 12.5 to 150 (≈ 34.6 to 415 µM) | – | 12.5 to 150 (≈ 34.6 to 415 µM) | – | < 1 | 12.5 to 150 (≈ 34.6 to 415 µM) | 3.5 to 12.5 (≈ 9.68 to 34.6 µM) | 3.5 to 12.5 (≈ 9.68 to 34.6 µM) | 12.5 to 150 (≈ 34.6 to 415 µM) | – | – | – | – | – | – | – | – | – | – | – |
| CCc1cc(C(=O)O)c(=O)[nH]c1-c1ccc(N2CCC(C3(NCc4ccccc4)CC3)C2)cc1.O=C(O)C(F)(F)F (stereo not shown) [Cpd 217, 6-(4-{3-[1-(benzylamino)cyclopropyl]pyrrolidin-1-yl}phenyl)-5-ethyl-2-oxo-1,2-dihydropyridine-3-carboxylic acid trifluoroacetate] | 3.5 to 12.5 | – | 12.5 to 150 | – | – | – | 3.5 to 12.5 | 3.5 to 12.5 | 12.5 to 150 | – | – | – | – | – | – | – | – | – | < 1 | – |
| CCc1c(-c2ccc(N3C[C@@H]4[C@H](C3)[C@H]4N(C)C)cc2)[nH]c(=O)c(C(=O)O)c1O [Cpd 271, 6-{4-[(1R,5S,6s)-6-(dimethylamino)-3-azabicyclo[3.1.0]hex-3-yl]phenyl}-5-ethyl-4-hydroxy-2-oxo-1,2-dihydropyridine-3-carboxylic acid hydrochloride] | – | 3.5 to 12.5 | 12.5 to 150 | 12.5 to 150 | < 1 | 3.5 to 12.5 | 3.5 to 12.5 | 12.5 to 150 | 12.5 to 150 | – | – | – | – | – | – | – | – | – | – | – |
| CN(C)c1ccc(-c2ccc(C(=O)O)c(=O)[nH]2)cc1 [Cpd 310, 6-[4-(dimethylamino)phenyl]-2-oxo-1,2-dihydropyridine-3-carboxylic acid] | – | 12.5 to 150 (≈ 48.4 to 581 µM) | 12.5 to 150 (≈ 48.4 to 581 µM) | 12.5 to 150 (≈ 48.4 to 581 µM) | 12.5 to 150 (≈ 48.4 to 581 µM) | 12.5 to 150 (≈ 48.4 to 581 µM) | 12.5 to 150 (≈ 48.4 to 581 µM) | 12.5 to 150 (≈ 48.4 to 581 µM) | 12.5 to 150 (≈ 48.4 to 581 µM) | 12.5 to 150 (≈ 48.4 to 581 µM) | – | – | – | – | – | – | – | – | – | – |
